Results as given in article PMC7318034, “Safety, Pharmacokinetics, and Drug-Drug Interaction Potential of Intravenous Durlobactam, a β-Lactamase Inhibitor, in Healthy Subjects” (Antimicrobial Agents and Chemotherapy, 2020).

How the values were obtained:
clinical = conditions: human, in vivo
Protocol: (§1) The blank control matrix was made up of human plasma (BioreclamationIVT) diluted 1:1 with SigmaFast (reconstituted protease inhibitor cocktail tablet [product S8820; Sigma-Aldrich, St. Louis, MO] in 10 ml of water) for preparation of calibration standards and QC samples. […] A 100-μl aliquot of the supernatant was transferred to 96-well plates. Samples were diluted further with 400 μl of water, and 5 μl of sample was injected into the LC-MS/MS system for analysis. […] The LLOQ for all analytes was 5 ng/ml.
(§2) AUC was calculated using the log-linear trapezoidal rule.
(§3) Pharmacokinetic parameters were summarized at each assessment time point using the mean ± standard deviation (SD), the percent coefficient of variation (CV), median, minimum, and maximum. Single-ascending-dose study data were assessed for dose proportionality using Cmax and AUC, and accumulation ratios was determined using repeat-dose cohorts. […] Noncompartmental analysis of PK parameters was performed using Phoenix WinNonlin (v6.4) software to determine PK parameters.

[1] = Safety and tolerability (adverse events, laboratory values, vital signs, ECG) in healthy subjects; assay type: in vivo, human
Protocol: A routine physical examination, determination of vital signs (supine blood pressure, heart rate, respiratory rate, temperature), a 12-lead electrocardiogram (ECG), and clinical laboratory testing (serum chemistry, hematology, urinalysis) were performed at screening, at intervals during the study, and at the 14-day follow-up.
The intent-to-treat (ITT) population included all randomized subjects. The safety population was all randomized subjects who received any study drug.

[2] = Part A single-ascending-dose plasma PK in healthy subjects; assay type: in vivo, human; conditions: for half-life / AUC(0-inf) / Cmax / clearance / Tmax / AUC(0-t) / Vd: human, plasma; for Tmax: median; for Vd: read-out: Vss
Protocol: This was a 4-part, double-blind, placebo-controlled study (15 cohorts) of DUR administered as a 3-h i.v. infusion (except for cohort 4, in which a 2-h i.v. infusion was evaluated) (see Table S5 in the supplemental material).
as §1, §2, §3

renal transporter OAT1 = target: T1, renal transporter OAT1 (Homo sapiens, UniProt Q4U2R8); test: In vitro assessment of transporter interactions; assay type: in vitro ADME; conditions: data not published
T1 sequence (Q4U2R8 1-563): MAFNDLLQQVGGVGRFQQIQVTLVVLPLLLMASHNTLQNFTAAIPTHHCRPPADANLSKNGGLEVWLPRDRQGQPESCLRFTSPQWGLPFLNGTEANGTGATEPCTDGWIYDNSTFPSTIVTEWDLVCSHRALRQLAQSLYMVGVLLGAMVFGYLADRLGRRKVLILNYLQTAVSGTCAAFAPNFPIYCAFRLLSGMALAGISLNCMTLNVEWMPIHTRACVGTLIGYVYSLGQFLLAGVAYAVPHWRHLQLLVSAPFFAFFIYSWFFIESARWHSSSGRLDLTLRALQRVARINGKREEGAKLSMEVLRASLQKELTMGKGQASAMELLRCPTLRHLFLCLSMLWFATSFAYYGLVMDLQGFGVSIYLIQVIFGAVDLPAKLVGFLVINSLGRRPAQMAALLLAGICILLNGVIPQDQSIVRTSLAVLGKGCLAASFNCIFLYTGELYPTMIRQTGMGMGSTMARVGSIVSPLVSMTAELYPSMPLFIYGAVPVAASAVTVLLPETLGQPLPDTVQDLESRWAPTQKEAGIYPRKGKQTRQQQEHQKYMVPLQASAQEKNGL

[3] = all subjects receiving the treatment
[4] = cohort of elderly subjects, DUR 1 g
[5] = iv, 0.25 g, part A cohort 1, single 0.25 g, 3-h i.v. infusion
[6] = iv, 0.5 g, part A cohort 2, single 0.5 g, 3-h i.v. infusion
[7] = iv, 1 g, part A cohort 3, single 1.0 g, 3-h i.v. infusion
[8] = iv, 1 g, part A cohort 4, single 1.0 g, 2-h i.v. infusion
[9] = iv, 1 g, part A cohort 8 (elderly subjects >65 years), single 1.0 g, 3-h i.v. infusion
[10] = iv, 2 g, part A cohort 5, single 2.0 g, 3-h i.v. infusion
[11] = iv, 4 g, part A cohort 6, single 4.0 g, 3-h i.v. infusion
[12] = iv, 8 g, part A cohort 7, single 8.0 g, 3-h i.v. infusion

For CC1=C[C@@H]2CN(C(=O)N2OS(=O)(=O)O)[C@@H]1C(N)=O [DUR, Durlobactam], the “AUC0–24” value (clinical) was 104.4 ± 6.6 µg·h/mL, the CL (clinical) was 9.6 ± 0.6 L/h and the Cmax (clinical) was 26900 ± 3600 ng/mL. For the same compound, the Vss (clinical) was 17.6 ± 2.0 L, the AUC(0-t) (clinical; AUC0–24) was 106 ± 31.5 µg·h/mL and the clearance (clinical; CL) was 165 mL/min. For the same compound, the Cmax (clinical; Cmax) was 30000 ± 9200 ng/mL, the Vd (clinical; Vss) was 15.9 ± 2.6 L and the half-life (clinical; t1/2) was 1.8 ± 0.4 h. For the same compound, the “drug-related AE: catheter site phlebitis” value ([1]; DUR group, all subjects) was 5.3%, the “drug-related AE: headache” value ([1]; DUR group, all subjects) was 10.6% and the “treatment-emergent AE: catheter site phlebitis” value ([1]; DUR group, all subjects) was 8.5%. For the same compound, the “treatment-emergent AE: headache” value ([1]; DUR group, all subjects) was 13.8%, the “Drug-related AE: Abdominal pain” value [1, 3] was 0 No. (%) of subjects and the “Drug-related AE: Dizziness” value [1, 3] was 4 (4.3) No. (%) of subjects. The “Drug-related AE: Dysgeusia” value [1, 3] was 2 (2.1) No. (%) of subjects, the “Drug-related AE: Nasal congestion” value [1, 3] was 2 (2.1) No. (%) of subjects and the “Drug-related AE: Nausea” value [1, 3] was 2 (2.1) No. (%) of subjects. For the same compound, the “Drug-related AE: Pain in extremity” value [1, 3] was 1 (1.1) No. (%) of subjects, the “Drug-related AE: Phlebitis” value [1, 3] was 2 (2.1) No. (%) of subjects and the “Drug-related AE: Polydipsia” value [1, 3] was 0 No. (%) of subjects. For the same compound, the “Drug-related AE: Pruritus” value [1, 3] was 2 (2.1) No. (%) of subjects, the “Drug-related AE: Somnolence” value [1, 3] was 1 (1.1) No. (%) of subjects and the “Drug-related AE: Upper respiratory infection” value [1, 3] was 1 (1.1) No. (%) of subjects. For the same compound, the “Drug-related AE: Vulvovaginal candidiasis” value [1, 3] was 2 (2.1) No. (%) of subjects, the “drug-related AE: catheter site phlebitis” value [1, 3] was 5 (5.3) No. (%) of subjects and the “drug-related AE: headache” value [1, 3] was 10 (10.6) No. (%) of subjects. For the same compound, the “overall safety and tolerability” value ([1]; alone or with SUL and/or IMI-CIL) was “generally safe and well tolerated”, the “changes in clinical laboratory values, vital signs, or ECG findings” value ([1]; any subject) was “No clinically significant changes” and the “increase in Cmax with 2-h infusion compared with 3-h infusion” value ([2]; cohort 4, DUR 1 g) was “approximately 50%”. The “increase in AUC in elderly subjects compared with younger subjects” value ([2]; cohort 8, DUR 1 g) was 2 fold, the “increase in Cmax in elderly subjects compared with younger subjects” value ([2]; cohort 8, DUR 1 g) was 1.8 fold and the “increase in exposure in elderly subjects” value [2, 4] was 100%. For the same compound, the “reduction of renal clearance in elderly subjects” value [2, 4] was “approximately 50%”, the “reduction of volume of distribution (V) in elderly subjects” value [2, 4] was “approximately 50%” and the half-life ([2]; intravenous, range across single doses of 0.25 g to 8 g, read-out: mean half-life (t1/2)) was 1.5 to 2.8 h. It also gave an AUC(0-inf) [2, 5] of 25.5 ± 3.7 µg·h/mL, a Cmax [2, 5] of 6900 ± 1000 ng/mL and a clearance [2, 5] of 167 mL/min. For the same compound, the half-life ([2]; iv, 0.25 g, part A cohort 1, single 0.25 g, 3-h i.v. infusion, mean ± SD, n=6, read-out: t1/2 (converted)) was 1.5 ± 0.1 h, the Tmax [2, 5] was 3 h and the AUC(0-t) ([2]; iv, 0.25 g, part A cohort 1, single 0.25 g, 3-h i.v. infusion, read-out: AUC0–24) was 25.5 ± 3.7 µg·h/mL. The AUC(0-t) ([2]; iv, 0.25 g, part A cohort 1, single 0.25 g, 3-h i.v. infusion, read-out: AUC0–t) was 25.4 ± 3.7 µg·h/mL, the Vd [2, 5] was 16.6 ± 3.6 L and the AUC(0-inf) [2, 6] was 47.8 ± 7.6 µg·h/mL. For the same compound, the Cmax [2, 6] was 9900 ± 2000 ng/mL, the clearance [2, 6] was 178 mL/min and the half-life ([2]; iv, 0.5 g, part A cohort 2, single 0.5 g, 3-h i.v. infusion, mean ± SD, n=6, read-out: t1/2 (converted)) was 2 ± 0.4 h. The Tmax [2, 6] was 3 h, the AUC(0-t) ([2]; iv, 0.5 g, part A cohort 2, single 0.5 g, 3-h i.v. infusion, read-out: AUC0–24) was 47.7 ± 7.5 µg·h/mL and the AUC(0-t) ([2]; iv, 0.5 g, part A cohort 2, single 0.5 g, 3-h i.v. infusion, read-out: AUC0–t) was 47.4 ± 7.7 µg·h/mL. For the same compound, the Vd [2, 6] was 25.8 ± 2.9 L, the AUC(0-inf) [2, 7] was 76.1 ± 10.5 µg·h/mL and the Cmax [2, 7] was 20700 ± 2800 ng/mL. The clearance [2, 7] was 223 mL/min, the half-life ([2]; iv, 1 g, part A cohort 3, single 1.0 g, 3-h i.v. infusion, mean ± SD, n=6, read-out: t1/2 (converted)) was 2 ± 0.3 h and the Tmax [2, 7] was 3 h. The AUC(0-t) ([2]; iv, 1 g, part A cohort 3, single 1.0 g, 3-h i.v. infusion, read-out: AUC0–24) was 76.1 ± 10.5 µg·h/mL, the AUC(0-t) ([2]; iv, 1 g, part A cohort 3, single 1.0 g, 3-h i.v. infusion, read-out: AUC0–t) was 75.6 ± 10.4 µg·h/mL and the Vd [2, 7] was 25.7 ± 5 L. For the same compound, the AUC(0-inf) [2, 8] was 101 ± 28.9 µg·h/mL, the Cmax [2, 8] was 31300 ± 6900 ng/mL and the clearance [2, 8] was 177 mL/min. It also gave a half-life ([2]; iv, 1 g, part A cohort 4, single 1.0 g, 2-h i.v. infusion, mean ± SD, n=6, read-out: t1/2 (converted)) of 2.2 ± 0.2 h, a Tmax [2, 8] of 2 h and an AUC(0-t) ([2]; iv, 1 g, part A cohort 4, single 1.0 g, 2-h i.v. infusion, read-out: AUC0–24) of 101 ± 28.9 µg·h/mL. For the same compound, the AUC(0-t) ([2]; iv, 1 g, part A cohort 4, single 1.0 g, 2-h i.v. infusion, read-out: AUC0–t) was 101 ± 29 µg·h/mL, the Vd [2, 8] was 22.7 ± 6.4 L and the AUC(0-inf) [2, 9] was 151 ± 14.1 µg·h/mL. It also gave a Cmax [2, 9] of 37800 ± 2500 ng/mL, a clearance [2, 9] of 112 mL/min and a half-life ([2]; iv, 1 g, part A cohort 8 (elderly subjects >65 years), single 1.0 g, 3-h i.v. infusion, mean ± SD, n=6, read-out: t1/2 (converted)) of 2.4 ± 0.3 h. It also gave a Tmax [2, 9] of 3 h, an AUC(0-t) ([2]; iv, 1 g, part A cohort 8 (elderly subjects >65 years), single 1.0 g, 3-h i.v. infusion, read-out: AUC0–24) of 151 ± 14 µg·h/mL and an AUC(0-t) ([2]; iv, 1 g, part A cohort 8 (elderly subjects >65 years), single 1.0 g, 3-h i.v. infusion, read-out: AUC0–t) of 151 ± 14 µg·h/mL. For the same compound, the Vd [2, 9] was 14.5 ± 2 L, the AUC(0-inf) [2, 10] was 173 ± 25.6 µg·h/mL and the Cmax [2, 10] was 41500 ± 6400 ng/mL. For the same compound, the clearance [2, 10] was 197 mL/min, the half-life ([2]; iv, 2 g, part A cohort 5, single 2.0 g, 3-h i.v. infusion, mean ± SD, n=6, read-out: t1/2 (converted)) was 2.2 ± 0.2 h and the Tmax [2, 10] was 2.5 h. For the same compound, the AUC(0-t) ([2]; iv, 2 g, part A cohort 5, single 2.0 g, 3-h i.v. infusion, read-out: AUC0–24) was 173 ± 25.6 µg·h/mL, the AUC(0-t) ([2]; iv, 2 g, part A cohort 5, single 2.0 g, 3-h i.v. infusion, read-out: AUC0–t) was 173 ± 25.6 µg·h/mL and the Vd [2, 10] was 24.3 ± 3.2 L. The AUC(0-inf) [2, 11] was 368 ± 55.9 µg·h/mL, the Cmax [2, 11] was 96200 ± 13600 ng/mL and the clearance [2, 11] was 185 mL/min. For the same compound, the half-life ([2]; iv, 4 g, part A cohort 6, single 4.0 g, 3-h i.v. infusion, mean ± SD, n=6, read-out: t1/2 (converted)) was 2.7 ± 0.6 h, the Tmax [2, 11] was 3 h and the AUC(0-t) ([2]; iv, 4 g, part A cohort 6, single 4.0 g, 3-h i.v. infusion, read-out: AUC0–24) was 367 ± 55.1 µg·h/mL. The AUC(0-t) ([2]; iv, 4 g, part A cohort 6, single 4.0 g, 3-h i.v. infusion, read-out: AUC0–t) was 368 ± 55 µg·h/mL, the Vd [2, 11] was 22.4 ± 3.6 L and the AUC(0-inf) [2, 12] was 732 ± 163 µg·h/mL. For the same compound, the Cmax [2, 12] was 176000 ± 29000 ng/mL, the clearance [2, 12] was 190 mL/min and the half-life ([2]; iv, 8 g, part A cohort 7, single 8.0 g, 3-h i.v. infusion, mean ± SD, n=6, read-out: t1/2 (converted)) was 2.8 ± 0.4 h. For the same compound, the Tmax [2, 12] was 3 h, the AUC(0-t) ([2]; iv, 8 g, part A cohort 7, single 8.0 g, 3-h i.v. infusion, read-out: AUC0–24) was 730 ± 164 µg·h/mL and the AUC(0-t) ([2]; iv, 8 g, part A cohort 7, single 8.0 g, 3-h i.v. infusion, read-out: AUC0–t) was 731 ± 163 µg·h/mL. The Vd [2, 12] was 28.1 ± 9.5 L and the “substrate of renal transporter OAT1” value (renal transporter OAT1) was “affinity of the substrate for the renal transporter OAT1”.
